Assay results taken from patent US20070104785A1, “TABLETS OF LINEZOLID FORM III AND PROCESSES FOR THEIR PREPARATION” (priority 2005, published 2007).

Assay: Gelling tendency when the solid dosage form contacts water
Format: physicochemical
Conditions: in words
Source text: Linezolid Form I is known from the publication, Brickner S J et al. (J. Med. Chem. 39 (3), 673-679, 1996). U.S. Pat. No. 6,559,305 discloses linezolid Form II. Tablets containing linezolid Form II are known from U.S. Pat. No. 6,514,529. The PCT application WO 05035530 discloses crystalline Form III of linezolid. […]. The gel formation leads to an erratic dissolution of the linezolid from the dosage form. A dosage form should deliver a drug in a reproducible way so that a maximum therapeutic effect can be achieved. An unpredictable release from the dosage form can compromise efficacy. The gelling tendency of linezolid Form III would discourage its formulation into solid dosage forms.
Without wishing to be bound by any theory, the following explanation is given for mechanisms involved with the solid dosage form of the present invention that provide a reproducible dissolution profile. […]. When linezolid Form III crystal comes in contact with water, the surface of the crystal dissolves and the dissolved linezolid Form III instead of spreading in water tends to stick to the crystal surface to form a gel layer around the crystal. The gel formation around the crystal acts as a barrier impeding further contact with water, which in turn retards the solubilization of linezolid Form III. […]

SMILES: CC(=O)NC[C@H]1CN(c2ccc(N3CCOCC3)c(F)c2)C(=O)O1 [Linezolid Form III, (S)—N—[[3-[3-Fluoro-4-(4-morpholinyl)phenyl]-2-oxo-5-oxazolidinyl]methyl]-acetamide]
- gelling tendency in contact with water: exhibits a gelling tendency
